Data taken from patent US20140296153A1, “Oligodendrocyte Differentiation” (priority 2011, published 2014).

Tests used:
[1] = tested on: Olig2; experiment: Western blotting analysis of Olig2; format: cell-based, mouse; conditions: 7 days, n=8
Description: Western blotting analysis of Olig2 was performed from 6- to 8-days-old neurospheres that were plated onto six-well plates previously coated with poly-D-lysine, and that were allowed to adhere for 48 h in the presence of SFM, and treated in the absence (control) or in the presence of Hp and/or AM251 for 7 days. For the evaluation of Olig2 protein levels in control versus Hp-treated condition, the medium was renewed after 48 h. Seven days after the first treatment, the cells were washed with 0.15M phosphate-buffered saline (PBS) and harvested by scraping in the lysis buffer [0.15 M NaCl, 0.05 M Tris-base, 5 mM EGTA, 1% Triton X-100, 0.5% DOC, 0.1% SDS, 10 mM dithiothreitol (DTT), containing a protease inhibitor cocktail tablet (Roche Diagnostics GmbH, Germany), pH7.4 at 4° C.].
The supernatant was collected after centrifugation at 14 000 rpm for 10 min, at 4° C. Protein concentration was measured by the BCA method and samples were treated with SDS-PAGE sample buffer [6× concentrated: 350 mM Tris, 10% (w/v) SDS, 30% (v/v) glycerol, 0.6 M DTT, 0.06% (w/v) bromophenol blue], boiled 5 min at 95° C., and stored at −20° C. until use for Western blotting analysis. […]

[2] = tested on: SVZ cells; experiment: SVZ self-renewal assay (secondary neurospheres); format: cell-based, mouse; conditions: primary neurospheres exposed to Hp 1 μM for 6 days, replated without Hp
Description: Neurosphere forming and self-renewal assays were performed on SVZ cells seeded at clonal density, 2500 cells per well in 24-well cell culture plates in SFM containing 5 ng/ml EGF and 2.5 ng/ml FGF-2 and supplemented or not (control) with 1 μM Hp or 50 ng.ml^−1 hepatocyte growth factor (carrier free recombinant human HGF, R&D Systems, Lille, France). After 6 days, the numbers of primary neurospheres were determined. For self-renewal assay, neurospheres were collected, dissociated as single cells and seeded in SFM containing 5 ng/ml EGF and 2.5 ng/ml FGF-2 in 24 well plates. After 6 days, the number of secondary neurospheres was counted.
For the SVZ neurosphere forming and self-renewal assays the experiments were replicated in five independent culture preparations and each experimental condition was assayed in four different coverslips.

[3] = target: CB1R (Homo sapiens, UniProt P21554); conditions: cited from earlier work
[4] = tested on: Olig2; experiment: Immunocytochemistry for Olig2; format: cell-based, mouse; conditions: Hp treatment
Description: Cells were fixed for 30 minutes in 4% paraformaldehyde in phosphate-buffered saline (PBS), permeabilized and blocked for non-specific binding sites for 1 h with 0.25% Triton X-100 (Sigma) and 3% bovine serum albumin (BSA, Sigma) dissolved in PBS. Cells were then subsequently incubated overnight at 4° C. with the following antibodies: rabbit polyclonal anti-CB1R (1:200, Proteimax), mouse monoclonal anti-nestin (1:200, Chemicon, Temecula, Calif., USA), mouse monoclonal anti-GFAP (1:500, Cell Signaling Technology, Danvers, Mass., USA) and rabbit polyclonal anti-Olig2 (1:200, Millipore, Billerica, Mass., USA). Thereafter, the cover slips were rinsed in PBS and incubated for 1 h at RT with the appropriate secondary antibodies: anti-rabbit IgG labeled with Alexa Fluor 488 (1:200) or anti-mouse IgG labeled with Alexa Fluor 594 (1:200) (both from Molecular Probes). After rinsing with PBS, cell preparations were incubated 5 min at RT with Hoechst 33342 (2 μg/mL, Molecular Probes) in PBS, for nuclear staining. Finally, the preparations were mounted using Dakocytomation fluorescent medium (Dakocytomation, Carpinteria, Calif., USA). Fluorescence images were recorded using a digital camera coupled to an Axioskop microscope (Carl Zeiss).

[5] = tested on: SVZ cells; experiment: TUNEL apoptosis assay in SVZ cell cultures; format: cell-based, mouse; conditions: for TUNEL-positive nuclei: 48 hours
Description: Six- to 8-day-old neurospheres were adhered for 48 hours onto poly-D-lysine-coated glass coverslips in SFM devoid of growth factors. Then, to evaluate proliferation/cell death and neuronal differentiation, the neurospheres were allowed to develop for 48 hours or 7 days at 37° C. in the absence or in the presence of hemopressin (100 nM or 1 μM, Proteimax, Cotia, Brazil) and the CB1R antagonist AM 251 (1 μM, Tocris, Ellisville, Mo., USA).
Cell apoptosis was evaluated by the terminal deoxynucleotidyl transferase dUTP nick-end labeling (TUNEL) assay which is a method that detects DNA fragmentation.
SVZ cells treated with Hp for 48 h, in serum free medium devoid of growth factor (differentiation conditions), were rinsed 3×10 min with 0.15 M PBS and permeabilized in 0.25% Triton X-100 for 30 min at RT. Cells were then incubated with terminal deoxynucleotidyl transferase buffer (0.25 U/μl terminal transferase), 6 μM biotinylated dUTP, pH 7.5)) (all from Roche, Basel, Switzerland) for 1 h at 37° C. in a humidified chamber, and then rinsed in TB buffer (300 mM NaCl and 30 mM sodium citrate) for 15 min and in PBS for 5 min. Incubation with Fluorescein was performed for 1 h and nuclei counterstaining and mounting were performed as described previously.
Fluorescence images were recorded using an LSM 510 Meta confocal microscope or an Axioskop 2 Plus fluorescence microscope (both from Carl Zeiss). In all experiments, measurements were performed in the border of SVZ neurospheres where migrating cells form a cell monolayer. […] Percentages of TUNEL or BrdU immunoreactive cells in SVZ cell cultures were calculated from cell counts in five independent microscopic fields in each coverslip with a x40 objective (approximately 200 cells per field). […] For SCCl experiments, the percentage of oligodendrocytic-like responding cells (with a Thromb/Hist ratio above 1.3) was calculated on the basis of one microscopic field per coverslip, containing approximately 100 cells (magnification, ×40).
The effect of Hp on cell death was evaluated after 48 hours of treatment with Hp.

CB1R, sequence (P21554 whole entry): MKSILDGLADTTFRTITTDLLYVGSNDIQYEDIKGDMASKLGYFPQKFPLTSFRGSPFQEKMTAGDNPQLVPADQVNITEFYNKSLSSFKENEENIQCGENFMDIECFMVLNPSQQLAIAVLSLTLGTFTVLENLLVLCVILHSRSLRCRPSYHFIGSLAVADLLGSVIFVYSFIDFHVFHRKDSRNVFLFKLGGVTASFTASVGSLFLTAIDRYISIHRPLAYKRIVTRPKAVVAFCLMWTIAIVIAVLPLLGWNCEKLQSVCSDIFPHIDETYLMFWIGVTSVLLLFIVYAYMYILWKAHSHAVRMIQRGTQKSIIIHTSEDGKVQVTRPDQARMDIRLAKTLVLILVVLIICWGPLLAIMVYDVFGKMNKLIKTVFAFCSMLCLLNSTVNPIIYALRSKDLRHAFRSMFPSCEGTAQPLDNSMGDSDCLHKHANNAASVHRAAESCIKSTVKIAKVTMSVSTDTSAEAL

CC(C)C[C@H](NC(=O)[C@H](Cc1ccccc1)NC(=O)[C@H](CCCCN)NC(=O)[C@H](Cc1ccccc1)NC(=O)[C@H](CC(N)=O)NC(=O)[C@@H](NC(=O)[C@@H]1CCCN1)C(C)C)C(=O)N[C@@H](CO)C(=O)N[C@@H](Cc1cnc[nH]1)C(=O)O [Hp, PVNFKFLSH]
Olig2 protein levels normalized to β-actin, relative to control (100%) ([1]; Hp 100 nM): 136.9±10.94%
Olig2 protein levels normalized to β-actin, relative to control (100%) ([1]; Hp 1 μM): 158.7±23.62%
number of secondary neurospheres (control 100%) [2]: 125.5±13.38%
activity at CB1R cannabinoid receptors [3]: CB1R receptor selective antagonist
number of Olig2-positive cells [4]: increased
toxicity to the cells (TUNEL) ([5]; 48 hours of treatment): not toxic to the cells
TUNEL-positive nuclei ([5]; Hp 100 nM): 10.26±1.69
TUNEL-positive nuclei ([5]; Hp 1 μM): 13.25±1.56%
